Laboratory results reported in PubChem BioAssay AID504487 (Sanford-Burnham Center for Chemical Genomics, 2011).
The source made the active and inactive calls.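 The calls were made as follows: active = IC50 at or below 20 µM; inactive = the rest.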

test system: 697 B-cell NF-kB luciferase reporter, PMA/ionomycin, 16 h; assay: NF-kB reporter suppression in 697 B cells – T-cell screen hits, luminescence, SAR follow-up (AID 504487)

IC50, inactive:
CCCC(=O)NC(c1ccc(OC)cc1)c1ccc2cccnc2c1O (stereo not drawn) > 79 µM
CCCC(=O)NC(c1ccccc1)c1ccc2cccnc2c1O (stereo not drawn) > 79 µM
CCCC(=O)NC(c1ccc(C)cc1)c1ccc2cccnc2c1O (stereo not drawn) > 79 µM
CCCC(=O)NC(c1ccccc1OC)c1ccc2cccnc2c1O (stereo not drawn) > 79 µM
COc1ccc(C(NC(=O)c2ccccc2)c2ccc3cccnc3c2O)cc1 (stereo not drawn) > 79 µM
CCCC(=O)NC(c1ccc(Cl)cc1)c1ccc2cccnc2c1O (stereo not drawn) > 79 µM
COc1cccc(C(=O)Nc2ccc3[nH]c(-c4cccc(OC)c4)cc(=O)c3c2)c1 > 79 µM
COc1ccc(C(NC(C)=O)c2ccc3cccnc3c2O)cc1 (stereo not drawn) > 79 µM
